Series [1] can be described thus: Hygroscopicity (DVS), water sorption/desorption at 37° C. Format: physicochemical. Particulars: for DVS (hygroscopicity): water sorption/desorption isotherms at 37° C., 0-95% RH. As for the experimental part: The hygroscopicity experiments were carried out with a DVS Intrinsic from S.M.S. This technique is designed to accurately measure a sample's change in mass as it sorbs precisely controlled concentrations of water vapors in an air carrier gas. The method used for DVS experiments (at 37° C.) is summarized below. • Equilibrating 10 min at 50% RH • Decreasing to 0% RH in 60 min • Equilibrating 10 min at 0% RH • Increasing to 95% RH in 280 min • Equilibrating 10 min at 95% RH • Decreasing to 50% RH in 100 min • Equilibrating 20 min at 50% RH
The hygroscopic experiments were carried out with a DVS Intrinsic from S.M.S. This technique is designed to accurately measure a sample's change in mass as it sorbs precisely controlled concentrations of water vapors in an air carrier gas. All the methods used for DVS experiments are summarized below. It should be noticed that the temperature and relative humidity (RH) are pre-set according to the initial temperature and RH.
• Equilibrating 120 min at 50% RH • Decreasing to 0% RH in 60 min • Equilibrating 150 min at 0% RH • Increasing to 95% RH in 200 min • Equilibrating 360 min at 95% RH • Decreasing to 50% RH in 100 min • Equilibrating 150 min at 50% RH
The hygroscopicity experiments were carried out with a DVS Intrinsic from S.M.S. This technique is designed to accurately measure a sample's change in mass as it sorbs precisely controlled concentrations of water vapors in an air carrier gas. All the methods used for DVS experiments are summarized below, and it should be noticed that the temperature and relative humidity (RH) are pre-set according to the initial temperature and RH.
The hygroscopicity experiments were carried out with a DVS Intrinsic from S.M.S. This technique is designed to accurately measure a sample's change in mass as it sorbs precisely controlled concentrations of water vapors in an air carrier gas. All the methods used for DVS experiments are summarized below. It should be noticed that the temperature and relative humidity (RH) are pre-set according to the initial temperature and RH.

Series [2] in a line: XRPD under temperature and relative humidity. Type of series: physicochemical. Particulars: for XRPD under temperature: impact / new crystalline phase: 25 to 100° C., RH set at 30%; for XRPD under relative humidity: impact / new crystalline phase: RH 10 to 80-90% at 40° C. As for the experimental part: Method 1: influence of temperature at ambient RH. RH was set at 30% in order to simulate a RH near from the ambient RH, and the temperature studied were 25-[…]-100° C.
Method 2: influence on RH at 40° C. The RH studied was at 10-30-80%.
These experiments studied the influence of temperature at ambient RH. RH was wet at 30% in order to simulate a RH near from the ambient RH, and the temperatures studied were 25-50-100° C.
These experiments studied the influence on RH at 40° C. The RH studied were 10-30-88%.
Using Method 1, the influence of temperature at ambient RH was studied. RH was set at 30% in order to simulate a RH near from the ambient RH, and the temperatures studied were 25-50-100° C. FIG. 24 provides the XRPD pattern representing the influence of temperature on Compound 1 Form I.
Using Method 2, the influence on RH at 40° C. was studied. The RH studied were 10-30-90%.
Using Method 1, the influence of temperature at ambient RH was studied. RH was set at 30% in order to simulate a RH near from the ambient RH. Temperature studied: 25-50-100° C.
Using Method 2, the influence on RH at 40° C. was studied at 10-30-90%.

The nature of series [3]: Solubility profile of Compound 1 Form III in water, ethanol and methanol. Format: physicochemical. Particulars: for solubility: thermodynamic from solid. As for the experimental part: The solubility of Compound 1 Form III was measured in the following solvents: water, ethanol and methanol. The determination of the solubility profile was performed with a Thermomixer Eppendorf driving the temperature and the mixing. The stock solutions were prepared according to the USP (United States Pharmacopeia), and then about 1 mL of these stock solutions was added to the API in tubes of 2 mL.

Series [4] can be described thus: pH solubility profile at 37° C. of Compound 1 Form III. Type of series: physicochemical. As for the experimental part:
All the buffer solutions were prepared according to the U.S.P namely hydrochloric acid buffer for pH=2.0, acid phthalate buffer for pH=4.0, phosphate buffer for pH=6.0, alkaline borate buffer for pH=8.0, which correspond to the native pH. At the end of the solubility study, the pH of the solutions were controlled again (final pH) to determine any variation. The solubility was measured at 37° C. The maximum concentration limit was set at 100 g/L max to minimize consumption of the tested compound.

A short description of series [5]: Polymorph screening, cooling experiments (solubility of Form III in screening solvents). Format: physicochemical. The settings on record: all solvents tested with the exception of dichloromethane, even at high temperature. Here is the method:
Solutions of Compound 1 Form III were prepared at respectively 50 and 150 g/L in each solvent. Heat was applied when necessary to get a solution. Once a solution was obtained, the vials were cooled down to 10° C.

Series [6] is described as follows: Solubility in water at 37° C. Format: physicochemical. The text has this: This compound can be considered as very slightly soluble (<1 g/L).
The conditions of series [7]: counter-ion, cited from earlier work; for pKa (B): basic function.

Here are results for 4 molecules from patent US20250092086A1, “CELASTROL SALTS, CRYSTALLINE FORMS, AND USES THEREOF” (ERX Pharmaceuticals Inc., priority 2022, published 2025).

As usually defined, the solubility is the concentration that dissolves in the medium under given conditions.

Structures are written as SMILES. In brackets after ≈: the same amount, converted by molar mass. Entries after “also recorded” stand apart in the source; their conditions may differ. Like-named read-outs stand apart in the source and are kept apart here.

Turning to `CC1=C(O)C(=O)C=C2C1=CC=C1[C@@]2(C)CC[C@@]2(C)[C@@H]3C[C@](C)(C(=O)O)CC[C@]3(C)CC[C@]12C` [Compound 1 Form III, 3-hydroxy-9β,13α-dimethyl-2-oxo-24,25,26-trinoroleana-1(10),3,5,7-tetraen-29-oic acid], the “Hysteresis observed with the final mass at 50% RH” value in series [1] (DVS, 37° C.) was “No hysteresis”. Besides, the “Mass decrease as RH was lowered to 0%” value in series [1] (DVS, 37° C.) is recorded as ~0.06%. The “Mass increase as RH was increased to 95%” value in series [1] (DVS, 37° C.) is recorded as ~0.09%. In addition, the “Water uptake, water sorption/desorption isotherms” value in series [1] (DVS, 37° C.) is on record as < 0.2%. Also, the “DVS (hygroscopicity)” value is “non-hygroscopic” in series [1], “Not hygroscopic” in series [1] (listed as FIII) and “nonhygroscopicity; also recorded: Non hygroscopic compound” in series [1] (listed as Form III). For the same molecule, the “XRPD under temperature: impact / new crystalline phase” value in series [2] is “stable”; in series [2] (listed as FIII), “=>No new crystalline”. The “XRPD under relative humidity: impact / new crystalline phase” value in series [2] is listed as “stable”; in series [2] (listed as FIII), “=>No new crystalline”. In addition, the solubility in series [3] (30 °C, water, 10, 30 and 50° C.) was < 1 mg/mL; in series [3] (organic solvent or mixture, ethanol, 10° C.) it was 33 to 38 mg/mL (≈ 73.2 to 84.3 mM); in series [3] (organic solvent or mixture, ethanol, 30° C.) it was 33 to 38 mg/mL (≈ 73.2 to 84.3 mM); in series [3] (organic solvent or mixture, ethanol, 50° C.), 33 to 38 mg/mL (≈ 73.2 to 84.3 mM); in series [3] (organic solvent or mixture, methanol, 10° C.) it was 27 to 33 mg/mL (≈ 59.9 to 73.2 mM); in series [3] (organic solvent or mixture, methanol, 30° C.), 27 to 33 mg/mL (≈ 59.9 to 73.2 mM). The solubility was 27 to 33 mg/mL (≈ 59.9 to 73.2 mM) in series [3] (organic solvent or mixture, methanol, 50° C.); < 1 mg/mL in series [4] (USP buffer solutions, aqueous buffer, thermodynamic from solid, USP buffers, native pH 2.0, 4.0, 6.0 and 8.0, read-out: Solubility range). In addition, the “Solubility profile: ethanol (description)” value in series [3] (ethanol) is recorded as “Ethanol: Soluble”. In addition, the “Solubility profile: methanol (description)” value in series [3] (methanol) was “Methanol: Sparingly Soluble”. The “Solubility profile: water (description)” value in series [3] (water) was “Water: Very slightly soluble”. The “pH solubility profile, description form” value is reported as “very slight solubility; also recorded: Very slightly” in series [4] (pH 2.0 to 8.0) and “From pH = 2 to pH = 8: very slightly soluble” in series [4] (pH 2.0 to 8.0, listed as Form III). The “Solubility in the screening solvents” value in series [5] is listed as “low solubility”.

`CC1=C(O)C(=O)C=C2C1=CC=C1[C@@]2(C)CC[C@@]2(C)[C@@H]3C[C@](C)(C(=O)O)CC[C@]3(C)CC[C@]12C` [Compound 2]: the “Solubility in water at 37° C.” value in series [6] was < 1.5 mg/mL. The “Solubility in water at 37° C.” value in series [6] (listed as Trometamol salt) is listed as “(s < 1.5 g/L)”. Besides, in series [1] (DVS, 37° C.), the “Hysteresis with the final mass at 50% RH” value is ~3 % w/w; the “Mass decrease as the RH was lowered to 0%” value is ~3.8 % w/w; the “Mass increase as the RH was increased to 95%” value is 11 % w/w; the “Water uptake, water sorption/desorption isotherms” value is listed as 2 ˜15 % w/w. Also, in series [1], the “DVS (hygroscopicity)” value is listed as “hygropscopic”. For the same molecule, in series [1] (listed as Trometamol salt), the “DVS (hygroscopicity)” value is “Hygroscopic”. In series [2], the “XRPD under temperature: impact / new crystalline phase” value is given as “No impact of temperature” and the “XRPD under relative humidity: impact / new crystalline phase” value was “formation of a new crystalline pattern”. Further, in series [2] (listed as Trometamol salt), the “XRPD under temperature: impact / new crystalline phase” value is “=>No new crystalline phase until 100 °C” and the “XRPD under relative humidity: impact / new crystalline phase” value is “less stable physically under relative humidity; also recorded: =>New crystaline phase from 80% RH”.

`NCCCC[C@H](N)C(=O)O` [L-Lysine]: the “pKa (A)” value in series [7] (acid function) is 2.16. Also, in series [7], the “pKa (B)” value is 9.18.

Regarding `NC(CO)(CO)CO` [trometamol, tris(hydroxymethyl)aminomethane], the “pKa (B)” value in series [7] is listed as 8.2.
